From ChEMBL document CHEMBL1156824, “Physicochemical space for optimum oral bioavailability: contribution of human intestinal absorption and first-pass elimination” (J Med Chem, 2010)

Key:
Homo sapiens [1] = experiment: Oral bioavailability in human; conditions: in vivo
Homo sapiens [2] = species on record: Homo sapiens; experiment: Hepatic clearance in human; conditions: in vivo
clinical = conditions: human, in vivo

Question: Which F_fraction (Homo sapiens [1]) does the source give for `NCC1(CC(=O)O)CCCCC1` [GABAPENTIN] here?
Answer: 0.6

Question: With `CC(C)Cc1ccc(C(C)C(=O)O)cc1` (stereo not given) [IBUPROFEN] as the compound, how does the F_fraction (Homo sapiens [1]) read?
Answer: 0.95

Question: With `CCCC(=O)Nc1ccc(OCC(O)CNC(C)C)c(C(C)=O)c1` (stereo not given) [ACEBUTOLOL] as the compound, how does the F_fraction (Homo sapiens [1]) read?
Answer: 0.5

Question: For `CCCCCN(CCCOC)C(=O)[C@@H](CCC(=O)O)NC(=O)c1ccc(Cl)c(Cl)c1` [DEXLOXIGLUMIDE], which CL (Homo sapiens [2]) is on record?
Answer: 3.3 mL/min/kg

Question: What about the CL renal (clinical) of the same compound?
Answer: 0.4 mL/min/kg

Question: With `Cc1ccsc1C(=CCCN1CCC[C@@H](C(=O)O)C1)c1sccc1C` [TIAGABINE] as the compound, how does the CL (Homo sapiens [2]) read?
Answer: 1.6 mL/min/kg

Question: What about the CL renal (clinical) of the same compound?
Answer: 0.032 mL/min/kg

Question: Which results are given for `O=C(NCCN1CCOCC1)c1ccc(Cl)cc1` [MOCLOBEMIDE]?
Answer: CL (Homo sapiens [2]): 10 mL/min/kg; CL renal (clinical): 0.1 mL/min/kg

Question: With `Cn1c(=O)c2c(ncn2CC(O)CO)n(C)c1=O` (stereo not given) [DYPHYLLINE] as the compound, how does the CL (Homo sapiens [2]) read?
Answer: 0.8 mL/min/kg

Question: And the CL renal (clinical)?
Answer: 4 mL/min/kg

Question: Which CL (Homo sapiens [2]) does the source give for `NS(=O)(=O)c1cc(C2(O)NC(=O)c3ccccc32)ccc1Cl` (stereo not given) [CHLORTHALIDONE] here?
Answer: 0.5 mL/min/kg

Question: And the CL renal (clinical)?
Answer: 1 mL/min/kg

Question: For `CC1CCCC(C)N1CCCC(O)(c1ccccc1)c1ccccn1` (stereo not given) [PIRMENOL], which CL (Homo sapiens [2]) is on record?
Answer: 1.1 mL/min/kg

Question: And the CL renal (clinical)?
Answer: 0.7 mL/min/kg

Question: Which CL (Homo sapiens [2]) does the source give for `O=c1[nH]c2ccccc2n1CCCN1CCC(n2c(=O)[nH]c3cc(Cl)ccc32)CC1` [DOMPERIDONE] here?
Answer: 9.5 mL/min/kg

Question: And the CL renal (clinical)?
Answer: 0.038 mL/min/kg

Question: Which CL (Homo sapiens [2]) does the source give for `OC(Cn1cncn1)(Cn1cncn1)c1ccc(F)cc1F` [FLUCONAZOLE] here?
Answer: 0.1 mL/min/kg

Question: What about the CL renal (clinical) of the same compound?
Answer: 0.2 mL/min/kg

Question: With `O=C(O)CCCc1ccc(N(CCCl)CCCl)cc1` [CHLORAMBUCIL] as the compound, how does the CL (Homo sapiens [2]) read?
Answer: 2.8 mL/min/kg

Question: And the CL renal (clinical)?
Answer: 0.028 mL/min/kg

Question: With `CC(CC(c1ccccc1)c1ccccc1)NC(C)(C)C` (stereo not given) [TERODILINE] as the compound, how does the CL (Homo sapiens [2]) read?
Answer: 1 mL/min/kg

Question: And the CL renal (clinical)?
Answer: 0.1 mL/min/kg

Question: What does the source list for `Cc1ccc(C(=O)Nc2ccc(S(=O)(=O)O)c3cc(S(=O)(=O)O)cc(S(=O)(=O)O)c23)cc1NC(=O)c1cccc(NC(=O)Nc2cccc(C(=O)Nc3cc(C(=O)Nc4ccc(S(=O)(=O)O)c5cc(S(=O)(=O)O)cc(S(=O)(=O)O)c45)ccc3C)c2)c1` [SURAMIN]?
Answer: CL (Homo sapiens [2]): 0.0011 mL/min/kg; CL renal (clinical): 0.0046 mL/min/kg

Question: With `CN(C)CCCN1c2ccccc2Sc2ccc(Cl)cc21` [CHLORPROMAZINE] as the compound, how does the CL (Homo sapiens [2]) read?
Answer: 15.8 mL/min/kg

Question: What about the CL renal (clinical) of the same compound?
Answer: 0.2 mL/min/kg

Question: What does the source list for `NC(=O)NO` [HYDROXYUREA]?
Answer: CL (Homo sapiens [2]): 1 mL/min/kg; CL renal (clinical): 0.5 mL/min/kg

Question: What does the source list for `Cc1cc(NC(=O)C2=C(O)c3ccccc3S(=O)(=O)N2C)no1` [ISOXICAM]?
Answer: CL (Homo sapiens [2]): 0.1 mL/min/kg; CL renal (clinical): 0.0014 mL/min/kg

Question: With `CS(=O)(=O)OCCCCOS(C)(=O)=O` [BUSULFAN] as the compound, how does the CL (Homo sapiens [2]) read?
Answer: 2.4 mL/min/kg

Question: What about the CL renal (clinical) of the same compound?
Answer: 0.024 mL/min/kg

Question: Which CL (Homo sapiens [2]) does the source give for `C[C@@H]1C[C@H]2[C@@H]3CCC4=CC(=O)C=C[C@]4(C)[C@@]3(F)[C@@H](O)C[C@]2(C)[C@@]1(O)C(=O)CO` [DEXAMETHASONE] here?
Answer: 3.2 mL/min/kg

Question: What about the CL renal (clinical) of the same compound?
Answer: 0.1 mL/min/kg

Question: Which CL (Homo sapiens [2]) does the source give for `CCS(=O)(=O)CCn1c([N+](=O)[O-])cnc1C` [TINIDAZOLE] here?
Answer: 0.5 mL/min/kg

Question: What about the CL renal (clinical) of the same compound?
Answer: 0.1 mL/min/kg

Question: Which CL (Homo sapiens [2]) does the source give for `Cc1cc(=O)n(-c2ccccc2)n1C` [ANTIPYRINE] here?
Answer: 0.6 mL/min/kg

Question: What about the CL renal (clinical) of the same compound?
Answer: 0.0243 mL/min/kg

Question: What does the source list for `CCOC(=O)c1ncn2c1CN(C)C(=O)c1cc(F)ccc1-2` [FLUMAZENIL]?
Answer: CL (Homo sapiens [2]): 16 mL/min/kg; CL renal (clinical): 0.032 mL/min/kg

Question: Which results are given for `CN(C)CCCC1(c2ccc(F)cc2)OCc2cc(C#N)ccc21` (stereo not given) [CITALOPRAM]?
Answer: CL (Homo sapiens [2]): 3.8 mL/min/kg; CL renal (clinical): 0.5 mL/min/kg

Question: Which CL (Homo sapiens [2]) does the source give for `COc1ccccc1N1CCN(CCCNc2cc(=O)n(C)c(=O)n2C)CC1` here?
Answer: 2.6 mL/min/kg

Question: And the CL renal (clinical)?
Answer: 0.5 mL/min/kg

Question: With `COc1cccc(C2(O)CCCCC2CN(C)C)c1` (stereo not given) [TRAMADOL] as the compound, how does the CL (Homo sapiens [2]) read?
Answer: 5.5 mL/min/kg

Question: And the CL renal (clinical)?
Answer: 1 mL/min/kg

Question: For `CCCCN1CCCCC1C(=O)Nc1c(C)cccc1C` (stereo not given) [BUPIVACAINE], which CL (Homo sapiens [2]) is on record?
Answer: 4.2 mL/min/kg

Question: And the CL renal (clinical)?
Answer: 0.1 mL/min/kg

Question: With `Cc1cccc(Nc2ccncc2S(=O)(=O)NC(=O)NC(C)C)c1` [TORSEMIDE] as the compound, how does the CL (Homo sapiens [2]) read?
Answer: 0.4 mL/min/kg

Question: What about the CL renal (clinical) of the same compound?
Answer: 0.1 mL/min/kg

Question: Which CL (Homo sapiens [2]) does the source give for `Cn1c(=O)c2c(ncn2C)n(C)c1=O` [CAFFEINE] here?
Answer: 1.4 mL/min/kg

Question: And the CL renal (clinical)?
Answer: 0.017 mL/min/kg

Question: For `c1ccc(C2(N3CCCCC3)CCCCC2)cc1` [PHENCYCLIDINE], which CL (Homo sapiens [2]) is on record?
Answer: 4.3 mL/min/kg

Question: And the CL renal (clinical)?
Answer: 0.8 mL/min/kg

Question: For `CCO[C@@H](Cc1ccc(OCCc2ccc(OS(C)(=O)=O)cc2)cc1)C(=O)O` [TESAGLITAZAR], which CL (Homo sapiens [2]) is on record?
Answer: 0.032 mL/min/kg

Question: And the CL renal (clinical)?
Answer: 0.007 mL/min/kg

Question: For `O=c1n(CCCN2CCN(c3cccc(Cl)c3)CC2)nc2ccccn12` [TRAZODONE], which CL (Homo sapiens [2]) is on record?
Answer: 1.4 mL/min/kg

Question: And the CL renal (clinical)?
Answer: 0.0018 mL/min/kg

Question: With `CC(C)(O)c1ccccc1CC[C@@H](SCC1(CC(=O)O)CC1)c1cccc(/C=C/c2ccc3ccc(Cl)cc3n2)c1` [MONTELUKAST] as the compound, how does the CL (Homo sapiens [2]) read?
Answer: 0.7 mL/min/kg

Question: And the CL renal (clinical)?
Answer: 0.0014 mL/min/kg

Question: For `CN1C(=O)CC[C@H]1c1cccnc1` [COTININE], which CL (Homo sapiens [2]) is on record?
Answer: 0.8 mL/min/kg

Question: And the CL renal (clinical)?
Answer: 0.1 mL/min/kg

Question: For `O=C(N[C@H](CO)[C@H](O)c1ccc([N+](=O)[O-])cc1)C(Cl)Cl` [CHLORAMPHENICOL], which CL (Homo sapiens [2]) is on record?
Answer: 2.2 mL/min/kg

Question: And the CL renal (clinical)?
Answer: 0.2 mL/min/kg

Question: Which CL (Homo sapiens [2]) does the source give for `CCCNC(=O)NS(=O)(=O)c1ccc(Cl)cc1` [CHLORPROPAMIDE] here?
Answer: 0.036 mL/min/kg

Question: What about the CL renal (clinical) of the same compound?
Answer: 0.009 mL/min/kg

Question: With `C[C@@H]1C(=O)O[C@H]2C[C@@]34[C@H]5C[C@@H](C(C)(C)C)[C@]36[C@@H](OC(=O)[C@@H]6O)O[C@@]4(C(=O)O5)[C@]21O` [GINKGOLIDE A] as the compound, how does the CL (Homo sapiens [2]) read?
Answer: 0.7 mL/min/kg

Question: And the CL renal (clinical)?
Answer: 1.7 mL/min/kg

Question: For `CCC1=C(C)CN(C(=O)NCCc2ccc(S(=O)(=O)NC(=O)N[C@H]3CC[C@H](C)CC3)cc2)C1=O` [GLIMEPIRIDE], which CL (Homo sapiens [2]) is on record?
Answer: 0.5 mL/min/kg

Question: And the CL renal (clinical)?
Answer: 0.002 mL/min/kg

Question: For `COc1cc2nc(N3CCN(C(=O)C4CCCO4)CC3)nc(N)c2cc1OC` (stereo not given) [TERAZOSIN], which CL (Homo sapiens [2]) is on record?
Answer: 1 mL/min/kg

Question: And the CL renal (clinical)?
Answer: 0.1 mL/min/kg

Question: What does the source list for `CN(C)CCC(c1ccc(Cl)cc1)c1ccccn1` (stereo not given) [CHLORPHENIRAMINE]?
Answer: CL (Homo sapiens [2]): 2.1 mL/min/kg; CL renal (clinical): 0.4 mL/min/kg

Question: Which results are given for `CN1CCN2c3ncccc3Cc3ccccc3C2C1` (stereo not given) [MIRTAZAPINE]?
Answer: CL (Homo sapiens [2]): 7.7 mL/min/kg; CL renal (clinical): 0.3 mL/min/kg

Question: What does the source list for `CCN1CCC[C@H]1CNC(=O)c1c(OC)ccc(Br)c1OC` [REMOXIPRIDE]?
Answer: CL (Homo sapiens [2]): 1.3 mL/min/kg; CL renal (clinical): 0.4 mL/min/kg

Question: Which results are given for `COc1ccc([C@]2(C#N)CC[C@@H](C(=O)O)CC2)cc1OC1CCCC1` [CILOMILAST]?
Answer: CL (Homo sapiens [2]): 0.5 mL/min/kg; CL renal (clinical): 0.005 mL/min/kg

Question: Which results are given for `NS(=O)(=O)c1cc2c(cc1C(F)(F)F)NCNS2(=O)=O` [HYDROFLUMETHIAZIDE]?
Answer: CL (Homo sapiens [2]): 0.7 mL/min/kg; CL renal (clinical): 9 mL/min/kg

Question: Which results are given for `COc1ccc2c(c1)N(C[C@H](C)CN(C)C)c1ccccc1S2` [LEVOMEPROMAZINE]?
Answer: CL (Homo sapiens [2]): 5.9 mL/min/kg; CL renal (clinical): 4 mL/min/kg

Question: With `CC[C@H]1OC(=O)[C@H](C)[C@@H](O[C@H]2C[C@@](C)(OC)[C@@H](O)[C@H](C)O2)[C@H](C)[C@@H](O[C@@H]2O[C@H](C)C[C@H](N(C)C)[C@H]2O)[C@](C)(OC)C[C@@H](C)C(=O)[C@H](C)[C@@H](O)[C@]1(C)O` [CLARITHROMYCIN] as the compound, how does the CL (Homo sapiens [2]) read?
Answer: 4.7 mL/min/kg

Question: And the CL renal (clinical)?
Answer: 2.6 mL/min/kg

Question: Which results are given for `C[C@@H]1C(=O)O[C@H]2[C@H](O)[C@@]34[C@H]5C[C@@H](C(C)(C)C)[C@]36[C@@H](OC(=O)[C@@H]6O)O[C@@]4(C(=O)O5)[C@@]12O` [GINKOLIDE B]?
Answer: CL (Homo sapiens [2]): 1.3 mL/min/kg; CL renal (clinical): 1 mL/min/kg

Question: For `CC(=O)CC(c1ccccc1)c1c(O)c2ccccc2oc1=O` (stereo not given) [WARFARIN], which CL (Homo sapiens [2]) is on record?
Answer: 0.1 mL/min/kg

Question: What about the CL renal (clinical) of the same compound?
Answer: 0.0011 mL/min/kg

Question: With `COCCc1ccc(OCC(O)CNC(C)C)cc1` (stereo not given) [METOPROLOL] as the compound, how does the CL (Homo sapiens [2]) read?
Answer: 12.4 mL/min/kg

Question: And the CL renal (clinical)?
Answer: 0.7 mL/min/kg

Question: What does the source list for `O=C1CN=C(c2ccccc2)c2cc([N+](=O)[O-])ccc2N1` [NITRAZEPAM]?
Answer: CL (Homo sapiens [2]): 0.9 mL/min/kg; CL renal (clinical): 0.0086 mL/min/kg
